Experiments:
Assay in all cases: Qualitative dye staining on agarose pads (EVOS M7000)
Type in all cases: cell-based
Set-up in all cases: key to Relative fluorescent intensity: Very high: If the cells looked twice as big in the fluorescent channel, it was marked as having “very high” relative fluorescent intensity; High: if the cells looked bigger in the fluorescent channel, it was marked as having “high” relative fluorescent intensity; Medium: If the cells looked almost the same size in the fluorescent channel and the bright field, it was marked as having “medium” relative fluorescent intensity; Low: If the cells looked smaller in the fluorescent channel as compared to the brightfield but still the whole cell was visible, it was marked as having “low” relative fluorescent intensity; Negligible: If only a few traces of a cell was visible in the fluorescent channel, it was marked as having “negligible” relative fluorescent intensity
Cory. Urealyticum = settings: DiSC3(5) 3 μM, SYBR Green I 10×, SYTO 13 3 μM, FM4-64 15 μM
Klebsiella = settings: Table 6 thresholds, DiSC3(5) 3 μM, SYBR Green I 10×, SYTO 13 3 μM, FM4-64 15 μM
Streptococcus agalactiae = settings: DiSC3(5) 3 μM, SYBR Green I 10×, SYTO 13 3 μM, FM4-64 15 μM
[1] = Table 8 sample Cory. Urealyticum (1001)
[2] = Table 8 sample Cory. Urealyticum (1002)
[3] = Table 6 thresholds, Streptococcus agalactiae
[4] = Table 7 commercial strain Streptococcus agalactiae NCTC 11239
[5] = Table 8 sample Streptococcus agalactiae (081)
[6] = Table 8 sample Streptococcus agalactiae (082)
[7] = Table 8 sample Streptococcus agalactiae (083)

| Structure (SMILES) | Percentage of cells stained (Cory. Urealyticum; [1]) | Relative fluorescent intensity (Cory. Urealyticum; [1]) | Percentage of cells stained (Cory. Urealyticum; [2]) | Relative fluorescent intensity (Cory. Urealyticum; [2]) | Percentage of cells stained (Klebsiella) | Relative fluorescent intensity (Klebsiella) | Percentage of cells stained (Streptococcus agalactiae; [3]) | Relative fluorescent intensity (Streptococcus agalactiae; [3]) | Percentage of cells stained (Streptococcus agalactiae; [4]) | Relative fluorescent intensity (Streptococcus agalactiae; [4]) | Percentage of cells stained (Streptococcus agalactiae; [5]) | Relative fluorescent intensity (Streptococcus agalactiae; [5]) | Percentage of cells stained (Streptococcus agalactiae; [6]) | Relative fluorescent intensity (Streptococcus agalactiae; [6]) | Percentage of cells stained (Streptococcus agalactiae; [7]) | Relative fluorescent intensity (Streptococcus agalactiae; [7]) | Relative fluorescent intensity (Streptococcus agalactiae; Table 6 thresholds, Streptococcus agalactiae, listed as SYBR Green) |
| --- | --- | --- | --- | --- | --- | --- | --- | --- | --- | --- | --- | --- | --- | --- | --- | --- | --- |
| CCCN1C(=CC=CC=Cc2sc3ccccc3[n+]2CCC)Sc2ccccc21.[I-] [DiSC3(5), 3,3′-Dipropylthiadicarbocyanine Iodide] | Few | Negligible | Few | Negligible | Few | Low-Medium | Almost all | low and Low | Almost all | Low | Almost all | Low | Almost all | Low | Almost all | Low |  |
| CCN(CC)c1ccc(C=CC=CC=Cc2cc[n+](CCC[N+](CC)(CC)CC)cc2)cc1.[Br-].[Br-] [FM 4-64, N-(3-Triethylammoniumpropyl)-4-(6-(4-(Diethylamino) Phenyl) Hexatrienyl) Pyridinium Dibromide] | Few | Negligible | Few | Negligible | Few | Low | Almost all | High | Almost all | High | Almost all | High | Almost all | High | Almost all | High |  |
| CCCN(CCCN(C)C)c1cc(/C=C2/Sc3ccccc3N2C)c2ccccc2[n+]1-c1ccccc1 [SYBR Green I, N′,N′-dimethyl-N-[4-[(E)-(3-methyl-1,3-benzothiazol-2-ylidene)methyl]-1-phenylquinolin-1-ium-2-yl]-N-propylpropane-1,3-diamine] | Few | Negligible | Few | Negligible | Few | Low | Almost all | very high | Almost all | Very high | Almost all | Very high | Almost all | Very high | Almost all | Very high | Very high |

Reference: patent US20250052744A1, “Dyes and Uses Thereof” (The University of Liverpool, priority 2021, published 2025)
